Measured values from US5420335A, “Parenteral nutrients based on watersoluble glycerol bisacetoacetates” (priority 1993, dated 1995).
Values joined by “and” are separate entries in the source; they are usually repeats but may differ in a detail not shown here. Identical values can stand only once. “Also recorded” adds a separate entry of the source.

Key:
[1] = Overall evaluation as a parenteral nutrient; assay type: in vivo, rat (male Sprague-Dawley); conditions: in words
Description: (§1) Water was available ad libitum at all times.
(§2) The vein was then ligated dorsally to the catheter. […] Body weights were measured daily.
(§3) Infusate volume, oral food intake, body weight and urinary volume and total nitrogen were monitored daily for each rat. Infusate volume and food intake were determined by weighing the appropriate container at the start and end of each 24 hr. period. Measurements were recorded between 9 and 10 AM each day. At the end of the 7th day, rats were sacrificed, and blood and liver were harvested. Plasma was separated for measurement of free fatty acids, glucose, and ketone bodies. Liver was weighed and a sample was fixed in buffered formalin for gross histology.
(§4) The data were analyzed for significance by the one-way analysis of variance with repeated measures and comparing the effect of dietary treatment on each day. […] The null hypothesis was concluded invalid if p≤0.05. The analysis of variance was computed on a SAS statistical package.

[2] = Oral dietary nitrogen (food) intake of intravenously infused rats; assay type: in vivo, rat (male Sprague-Dawley); conditions: for Dietary Nitrogen Intake: Table 1, Example 2
Description: as §1, §2, §3, §4
(§5) This compound has an estimated energy density of 4.86 kcal/gram based on thermodynamic data from similar compounds.

[3] = Mortality and gross toxicity on intravenous infusion; conditions: Example 2; 12.5 g/100 mL in 0.9% saline, 50 mL/day i.v.
Description: as §1, §2

[4] = Oral dietary nitrogen (food) intake of intravenously infused rats; assay type: in vivo, rat (male Sprague-Dawley); conditions: Table 1, Example 2, average of 7 rats
[5] = Daily urinary nitrogen losses of intravenously infused rats; assay type: in vivo, rat (male Sprague-Dawley); conditions: Table 2, Example 2
Description: as §1, §2, §3
(§6) The data were analyzed for significance by the one-way analysis of variance with repeated measures and comparing the effect of dietary treatment on each day. […] The null hypothesis was concluded invalid if p≤0.05. The analysis of variance was computed on a SAS statistical package. […]

[6] = Daily body weight of intravenously infused rats; assay type: in vivo, rat (male Sprague-Dawley); conditions: for Daily Body Weight: Table 4, Example 2
Description: as §1, §2, §3, §4, §5

[7] = Plasma free fatty acids, glucose and ketone bodies after 7 days of infusion; assay type: in vivo, rat (male Sprague-Dawley); conditions: end of day 7; for ACAC / BOHB / FFa / Glucose / Ratio: A/B / T.KB: Table 5, Example 2; for T.KB: total ketone bodies
Description: as §3, §4

[8] = Nitrogen balance (difference between intake and urinary output); assay type: in vivo, rat (male Sprague-Dawley); conditions: for nitrogen balance: 7 days; for Nitrogen Balance, Difference Between Intake and Output: Table 3, Example 2
Description: as §1, §2, §3, §4
FIG. 3 illustrates the difference between oral intake and urinary nitrogen output which is termed nitrogen balance. It is representative of nitrogen balance because urinary nitrogen is the major route for body loss of nitrogen.
The experimental compound contains 8% nitrogen. With an infusion of 5.6 grams/day, infused nitrogen would provide approximately 450 mg more than that listed in the data tables. The final balance figures includes this number which is calculated based on the actual daily infusion rate for each rat.

[9] = Liver weight after 7 days of infusion; assay type: in vivo, rat (male Sprague-Dawley); conditions: for Liver/100 GM / Liver Wt.: Table 5, Example 2; for Liver/100 GM: as percentage of body weight
Description: as §3, §6

[10] = day 1, individual rat, listed as BISACETOACETYLGLYCEROL
[11] = day 2, individual rat, listed as BISACETOACETYLGLYCEROL
[12] = day 3, individual rat, listed as BISACETOACETYLGLYCEROL
[13] = day 4, individual rat, listed as BISACETOACETYLGLYCEROL
[14] = day 5, individual rat, listed as BISACETOACETYLGLYCEROL
[15] = day 6, individual rat, listed as BISACETOACETYLGLYCEROL
[16] = day 7, individual rat, listed as BISACETOACETYLGLYCEROL

Glycerol bis-acetoacetate [Compound 1]
efficacy as parenteral nutrient / energy source [1]: providing significant energy beyond that which was available from oral dietary intake | efficacy as parenteral nutrient / energy source ([1]; listed as 1,2- and 1,3-bisacetoacetyl glycerol): unexpectedly high nutrient activity | Dietary Nitrogen Intake [2, 10]: 118.44 MG N and 125.02 MG N and 138.18 MG N and 611.94 MG N and 250.04 MG N and 151.34 MG N | Dietary Nitrogen Intake [2, 11]: 342.16 MG N and 434.28 MG N and 131.6 MG N and 519.82 MG N and 447.44 MG N and 322.42 MG N | Dietary Nitrogen Intake [2, 12]: 302.68 MG N and 631.68 MG N and 105.28 MG N and 447.44 MG N and 473.76 MG N and 263.2 MG N | Dietary Nitrogen Intake [2, 13]: 671.16 MG N and 638.26 MG N and 78.96 MG N and 579.04 MG N and 414.54 MG N and 407.96 MG N and 388.22 MG N | Dietary Nitrogen Intake [2, 14]: 559.3 MG N and 572.46 MG N and 230.3 MG N and 388.22 MG N and 618.52 MG N and 269.78 MG N and 296.1 MG N | Dietary Nitrogen Intake ([2]; day 6, average of 7 rats): 361 MG N | Dietary Nitrogen Intake [2, 15]: 539.56 MG N and 230.3 MG N and 59.22 MG N and 375.06 MG N and 625.1 MG N and 414.54 MG N and 282.94 MG N | Dietary Nitrogen Intake [2, 16]: 565.88 MG N and 263.2 MG N and 151.34 MG N and 421.12 MG N and 644.84 MG N and 473.76 MG N and 203.98 MG N | differences in dietary nitrogen intake among the three groups ([2]; in words, vs saline and other groups, 7 days): no differences in dietary nitrogen intake among the three groups | rats died from causes unknown [3]: Five | Dietary Nitrogen Intake ([4]; day 1): 216 MG N | Dietary Nitrogen Intake ([4]; day 2): 333 MG N | Dietary Nitrogen Intake ([4]; day 3): 408 MG N | Dietary Nitrogen Intake ([4]; day 4): 454 MG N | Dietary Nitrogen Intake ([4]; day 5): 419 MG N | Dietary Nitrogen Intake ([4]; day 7): 389 MG N | Urinary Nitrogen ([5]; day 1, average of 7 rats): 166 mg | Urinary Nitrogen [5, 10]: 116.21 mg and 250.2 mg and 187.3 mg and 123.37 mg and 182.18 mg and 159.89 mg and 145.06 mg | Urinary Nitrogen ([5]; day 2, average of 7 rats): 192 mg | Urinary Nitrogen [5, 11]: 315.78 mg and 264.22 mg and 139.27 mg and 174.34 mg and 187.22 mg and 165.19 mg and 94.71 mg | Urinary Nitrogen ([5]; day 3, average of 7 rats): 137 mg | Urinary Nitrogen [5, 12]: 181.94 mg and 142.42 mg and 62.97 mg and 164.52 mg and 162.29 mg and 140.13 mg and 104.72 mg | Urinary Nitrogen ([5]; day 4, average of 7 rats): 173 mg | Urinary Nitrogen [5, 13]: 294.68 mg and 253.62 mg and 47.06 mg and 193.72 mg and 139.67 mg and 115.59 mg and 168.33 mg | Urinary Nitrogen ([5]; day 5, average of 7 rats): 215 mg | Urinary Nitrogen [5, 14]: 289.81 mg and 303.16 mg and 254.66 mg and 144.16 mg and 274.72 mg and 97.81 mg and 142.32 mg | Urinary Nitrogen ([5]; day 6, average of 7 rats): 195 mg | Urinary Nitrogen [5, 15]: 283.02 mg and 191.83 mg and 11.17 mg and 134.85 mg and 378.79 mg and 184.37 mg and 179.01 mg | Urinary Nitrogen ([5]; day 7, average of 7 rats): 219 mg | Urinary Nitrogen [5, 16]: 381.14 mg and 194.98 mg and 152.92 mg and 192.67 mg and 269.64 mg and 203.37 mg and 138.8 mg | Daily Body Weight ([6]; day 0, average of 7 rats): 262 Grams | Daily Body Weight ([6]; day 0, individual rat, listed as BISACETOACETYLGLYCEROL): 282 Grams and 278 Grams and 233 Grams and 283 Grams and 268 Grams and 244 Grams | Daily Body Weight ([6]; day 1, average of 7 rats): 268 Grams | Daily Body Weight [6, 10]: 311 Grams and 290 Grams and 230 Grams and 284 Grams and 268 Grams and 249 Grams and 241 Grams | Daily Body Weight ([6]; day 2, average of 7 rats): 268 Grams | Daily Body Weight [6, 11]: 273 Grams and 289 Grams and 232 Grams and 297 Grams and 279 Grams and 249 Grams and 256 Grams | Daily Body Weight ([6]; day 3, average of 7 rats): 273 Grams | Daily Body Weight [6, 12]: 278 Grams and 286 Grams and 258 Grams and 292 Grams and 256 Grams and 263 Grams | Daily Body Weight ([6]; day 4, average of 7 rats): 271 Grams | Daily Body Weight [6, 13]: 265 Grams and 284 Grams and 226 Grams and 302 Grams and 280 Grams and 262 Grams and 276 Grams | Daily Body Weight ([6]; day 5, average of 7 rats): 276 Grams | Daily Body Weight [6, 14]: 261 Grams and 276 Grams and 234 Grams and 306 Grams and 285 Grams and 293 Grams and 277 Grams | Daily Body Weight ([6]; day 6, average of 7 rats): 269 Grams | Daily Body Weight [6, 15]: 253 Grams and 261 Grams and 252 Grams and 310 Grams and 281 Grams and 269 Grams and 260 Grams | Daily Body Weight ([6]; day 7, average of 7 rats): 266 Grams | Daily Body Weight [6, 16]: 249 Grams and 261 Grams and 253 Grams and 307 Grams and 276 Grams and 273 Grams and 245 Grams | change in body weight ([6]; in words, 7 days): gained weight; also recorded: body weight changes which were consistent with nitrogen balance data; also recorded: better growth | ACAC ([7]; plasma, average of 7 rats): 0.716 mmol/L | BOHB ([7]; plasma, average of 7 rats): 0.776 mmol/L | FFa ([7]; plasma, average of 7 rats): 0.563 mmol/L | Glucose ([7]; plasma, average of 7 rats): 117.789 mg/dL | Ratio: A/B ([7]; plasma, average of 7 rats): 1.171 | ACAC ([7]; plasma, individual rat): 0.982 mmol/L and 0.851 mmol/L and 0.939 mmol/L and 0.447 mmol/L and 0.869 mmol/L and 0.550 mmol/L and 0.377 mmol/L | BOHB ([7]; plasma, individual rat): 0.797 mmol/L and 0.770 mmol/L and 1.059 mmol/L and 0.529 mmol/L and 1.021 mmol/L and 0.404 mmol/L and 0.849 mmol/L | FFa ([7]; plasma, individual rat): 0.540 mmol/L and 0.574 mmol/L and 0.745 mmol/L and 0.466 mmol/L and 0.483 mmol/L and 0.615 mmol/L and 0.519 mmol/L | Glucose ([7]; plasma, individual rat): 94.920 mg/dL and 149.000 mg/dL and 114.200 mg/dL and 163.500 mg/dL and 89.000 mg/dL and 122.100 mg/dL and 91.800 mg/dL | Ratio: A/B ([7]; plasma, individual rat): 0.812 and 0.905 and 1.128 and 1.185 and 1.175 and 0.735 and 2.254 | T.KB ([7]; plasma, average of 7 rats): 1.492 mmol/L | T.KB ([7]; plasma, individual rat): 1.779 mmol/L and 1.621 mmol/L and 1.998 mmol/L and 0.976 mmol/L and 1.890 mmol/L and 0.954 mmol/L and 1.226 mmol/L | blood / plasma glucose ([7]; in words): normal blood glucose; also recorded: did not have the hyperglycemia associated with glucose infusion | free fatty acid concentration ([7]; in words, plasma): not different for the three groups | ketone bodies ([7]; in words, plasma): elevated; also recorded: approximately the maximum associated with total fasting in the rat | nitrogen balance ([8]; Example 2): around +200 mg/day | Nitrogen Balance, Difference Between Intake and Output ([8]; day 1, average of 7 rats): 50 MG N | Nitrogen Balance, Difference Between Intake and Output [8, 10]: 2.23 MG N and -125.18 MG N and -49.12 MG N and 488.57 MG N and 67.86 MG N and -8.55 MG N and -26.62 MG N | Nitrogen Balance, Difference Between Intake and Output ([8]; day 2, average of 7 rats): 141 MG N | Nitrogen Balance, Difference Between Intake and Output [8, 11]: 26.38 MG N and 170.06 MG N and 345.48 MG N and 260.22 MG N and 157.23 MG N and 36.89 MG N | Nitrogen Balance, Difference Between Intake and Output ([8]; day 3, average of 7 rats): 271 MG N | Nitrogen Balance, Difference Between Intake and Output [8, 12]: 120.74 MG N and 489.26 MG N and 42.31 MG N and 282.92 MG N and 469.39 MG N and 333.63 MG N and 158.48 MG N | Nitrogen Balance, Difference Between Intake and Output ([8]; day 4, average of 7 rats): 281 MG N | Nitrogen Balance, Difference Between Intake and Output [8, 13]: 376.48 MG N and 384.64 MG N and 31.9 MG N and 385.32 MG N and 274.87 MG N and 292.37 MG N and 219.89 MG N | Nitrogen Balance, Difference Between Intake and Output ([8]; day 5, average of 7 rats): 204 MG N | Nitrogen Balance, Difference Between Intake and Output [8, 14]: 269.49 MG N and 269.3 MG N and -24.36 MG N and 244.06 MG N and 343.8 MG N and 171.97 MG N and 153.78 MG N | Nitrogen Balance, Difference Between Intake and Output ([8]; day 6, average of 7 rats): 166 MG N | Nitrogen Balance, Difference Between Intake and Output [8, 15]: 256.54 MG N and 38.47 MG N and 48.05 MG N and 240.21 MG N and 246.31 MG N and 230.17 MG N and 103.93 MG N | Nitrogen Balance, Difference Between Intake and Output ([8]; day 7, average of 7 rats): 170 MG N | Nitrogen Balance, Difference Between Intake and Output [8, 16]: 184.74 MG N and 68.22 MG N and -1.58 MG N and 228.45 MG N and 375.2 MG N and 270.39 MG N and 65.18 MG N | nitrogen balance ([8]; in words): positive nitrogen balances; also recorded: better growth and nitrogen retention | Liver/100 GM ([9]; average of 7 rats): 3.223 | Liver/100 GM ([9]; individual rat): 2.859 and 3.494 and 3.130 and 3.795 and 2.482 and 3.183 and 3.620 | Liver Wt. ([9]; end of day 7, average of 7 rats): 8.603 Grams | Liver Wt. ([9]; end of day 7, individual rat): 7.12 Grams and 9.12 Grams and 7.92 Grams and 11.65 Grams and 6.85 Grams and 8.69 Grams and 8.87 Grams | liver weight and percentage liver weight ([9]; in words, end of day 7): similarity between glucose infused and experimental compound infused rats liver
